Like-named read-outs stand apart in the source and are kept apart here.
Target: T1, histamine-3 receptors (H3 receptor) (Rattus norvegicus, UniProt Q9QYN8)
T1 construct: from tissue; host or cells: male Sprague-Dawley rat brain cortex membranes
Assay: (3H)-N-α-methylhistamine binding to rat cortical membranes
Method: Briefly, male Sprague-Dawley rat brain cortices were homogenized (1 g tissue/10 mL buffer) in 50 mM Tris-HCl/5 mM EDTA containing protease inhibitor cocktail (Calbiochem) using a polytron set at 20,500 rpm. Homogenates were centrifuged for 20 minutes at 40,000×g. The supernatant was decanted, and pellets were weighed. The pellet was resuspended by polytron homogenization in 40 mL 50 mM Tris-HCl/5 mM EDTA with protease inhibitors and centrifuged for 20 minutes at 40,000×g. […] Rat cortical membranes (12 mg wet weight/tube) were incubated with (^3H)-N-α-methylhistamine (˜0.6 nM) with or without H3 receptor antagonists in a total incubation volume of 0.5 mL of 50 mM Tris-HCl/5 mM EDTA (pH 7.7). Test compounds were dissolved in DMSO to provide a 20 mM solution, serially diluted and then added to the incubation mixtures prior to initiating the incubation assay by addition of the membranes. Thioperamide (3 μM) was used to determine nonspecific binding. Binding incubations were conducted for 30 minutes at 25° C. and terminated by addition of 2 mL of ice cold 50 mM Tris-HCl (pH 7.7) and filtration through 0.3% polyethylenimine-soaked Unifilter plates (Packard). These filters were washed 4 additional times with 2 mL of ice-cold 50 mM Tris-HCl and dried for 1 hour. Radioactivity was determined using liquid scintillation counting techniques. Results were analyzed by Hill transformation and Ki values were determined using the Cheng-Prusoff equation.

[1] = male Sprague-Dawley rat brain cortical membranes, (3H)-N-α-methylhistamine ~0.6 nM, 30 minutes at 25° C., Cheng-Prusoff equation, read-out: Ki

T1 sequence (Q9QYN8 whole entry): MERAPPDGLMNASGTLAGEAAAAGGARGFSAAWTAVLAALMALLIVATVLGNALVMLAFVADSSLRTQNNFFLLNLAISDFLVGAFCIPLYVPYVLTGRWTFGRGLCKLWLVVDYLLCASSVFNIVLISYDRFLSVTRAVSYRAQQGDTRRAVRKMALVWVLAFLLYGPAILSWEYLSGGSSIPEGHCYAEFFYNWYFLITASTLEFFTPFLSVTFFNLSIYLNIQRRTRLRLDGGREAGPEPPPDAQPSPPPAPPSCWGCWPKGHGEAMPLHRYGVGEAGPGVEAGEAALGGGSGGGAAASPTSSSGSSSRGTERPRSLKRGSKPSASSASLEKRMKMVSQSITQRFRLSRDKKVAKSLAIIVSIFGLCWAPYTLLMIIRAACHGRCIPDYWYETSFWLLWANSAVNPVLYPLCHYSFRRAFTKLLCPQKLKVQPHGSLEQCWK

Molecule: CCCN(CC)CCc1cc2cc(-c3ccc(C(=O)N4CCOCC4)cc3)ccc2o1 [Example 40, N-ethyl-N-(2-{5-[4-(4-morpholinylcarbonyl)phenyl]-1-benzofuran-2-yl}ethyl)-N-propylamine]
- Ki [1]: 0.0322 µM

Molecule: CN(C)CCc1cc2cc(-c3ccc(C(=O)N4CCOCC4)cc3)ccc2o1 [Example 39, N,N-dimethyl-N-(2-{5-[4-(4-morpholinylcarbonyl)phenyl]-1-benzofuran-2-yl}ethyl)amine]
- Ki [1]: 0.148 µM

Molecule: CC1CCCN1CCc1cc2cc(-c3ccc(C(=O)N4CCOCC4)cc3)ccc2o1 (centres unmarked) [Example 23, 4-(4-{2-[2-(2-methyl-1-pyrrolidinyl)ethyl]-1-benzofuran-5-yl}benzoyl)morpholine]
- Ki [1]: 0.00197 µM

Molecule: CC(C)N(C)CCc1cc2cc(-c3ccc(C(=O)N4CCOCC4)cc3)ccc2o1 [Example 36, N-isopropyl-N-methyl-N-(2-{5-[4-(4-morpholinylcarbonyl)phenyl]-1-benzofuran-2-yl}ethyl)amine]
- Ki [1]: 0.0521 µM

Molecule: 4-[4-(2-{2-[(2R,6S)-2,6-dimethylpiperidinyl]ethyl}-1-benzofuran-5-yl)benzoyl]morpholine [Example 29]
- Ki [1]: 0.00846 µM

Molecule: CCN(CCc1cc2cc(-c3ccc(C#N)cc3)ccc2o1)C(C)C [Example 21, 4-(2-{2-[ethyl(isopropyl)amino]ethyl}-1-benzofuran-5-yl)benzonitrile]
- Ki [1]: 0.0444 µM

Molecule: CCN(CCc1cc2cc(-c3ccc(C(=O)N4CCOCC4)cn3)ccc2o1)C(C)C [Example 57, N-ethyl-N-isopropyl-N-(2-{5-[5-(4-morpholinylcarbonyl)-2-pyridinyl]-1-benzofuran-2-yl}ethyl)amine]
- Ki [1]: 0.115 µM

Molecule: CCN(CC)CCc1cc2cc(-c3ccc(C(=O)N4CCOCC4)cc3)ccc2o1 [Example 25, N,N-diethyl-N-(2-{5-[4-(4-morpholinylcarbonyl)phenyl]-1-benzofuran-2-yl}ethyl)amine]
- Ki [1]: 0.0144 µM

Molecule: Cc1c(CCN2CCCCC2)c(=O)oc2ccc(-c3ccc(C#N)cc3)cc12 [Example 42, 4-{4-methyl-2-oxo-3-[2-(1-piperidinyl)ethyl]-2H-chromen-6-yl}benzonitrile]
- Ki [1]: 0.0418 µM

Molecule: CC(C)CN(C)CCc1cc2cc(-c3ccc(C(=O)N4CCOCC4)cn3)ccc2o1 [Example 55, N-isobutyl-N-methyl-N-(2-{5-[5-(4-morpholinylcarbonyl)-2-pyridinyl]-1-benzofuran-2yl}ethyl)amine]
- Ki [1]: 0.575 µM

Molecule: C[C@@H]1CCCN1CCc1cc2cc(C(=O)C3CC3)ccc2o1 [Example 75, cyclopropyl(2-{2-[(2R)-2-methyl-1-pyrrolidinyl]ethyl}-1-benzofuran-5-yl)methanone]
- Ki [1]: 0.0099 µM

Molecule: CN(CCc1cc2cc(-c3ccc(C(=O)N4CCOCC4)cn3)ccc2o1)C(C)(C)C [Example 54, N-(tert-butyl)-N-methyl-N-(2-{5-[5-(4-morpholinylcarbonyl)-2-pyridinyl]-1-benzofuran-2-yl}ethyl)amine]
- Ki [1]: 0.197 µM

Molecule: Cc1c(CCN2CCCC2)c(=O)oc2ccc(-c3ccc(C#N)cc3)cc12 [Example 41, 4-{4-methyl-2-oxo-3-[2-(1-pyrolidinyl)ethyl]-2H-chromen-6-yl}benzonitrile]
- Ki [1]: 0.0515 µM

Molecule: CN(CCc1cc2cc(-c3ccc(C(=O)N4CCOCC4)cc3)ccc2o1)C(C)(C)C [Example 35, N-(tert-butyl)-N-methyl-N-(2-{5-[4-(4-morpholinylcarbonyl)phenyl]-1-benzofuran-2-yl}ethyl)amine]
- Ki [1]: 0.0679 µM

Molecule: CC(C)N(C)CCc1cc2cc(-c3ccc(C#N)cc3)ccc2o1 [Example 19, 4-(2-{2-[isopropyl(methyl)amino]ethyl}-1-benzofuran-5-yl)benzonitrile]
- Ki [1]: 0.0777 µM

Molecule: CC1CCCCN1CCc1cc2cc(-c3ccc(C(=O)N4CCOCC4)cc3)ccc2o1 (centres unmarked) [Example 26, 4-(4-{2-[2-(2-methyl1--piperidinyl)ethyl]-1-benzofuran-5-yl}benzoyl)morpholine]
- Ki [1]: 0.0272 µM

Molecule: 4-(2-{2-[(2R,6S)-2,6-dimethylpiperidinyl]ethyl}-1-benzofuran-5-yl)benzonitrile [Example 11]
- Ki [1]: 0.0193 µM

Molecule: CCN(CC)CCc1cc2cc(-c3ccc(C#N)cc3)ccc2o1 [Example 5, 4-{2-[2-(diethylamino)ethyl]-1-benzofuran-5-yl}benzonitrile]
- Ki [1]: 0.0494 µM

Molecule: O=C(c1ccc(-c2ccc3oc(CCNCCCO)cc3c2)nc1)N1CCOCC1 [Example 64, 3-[(2-{5-[5-(4-morpholinylcarbonyl)-2-pyridinyl]-1-benzofuran-2-yl}ethyl)amino]-1-propanol]
- Ki [1]: 1 µM

Molecule: C=CCNCCc1cc2cc(-c3ccc(C(=O)N4CCOCC4)cn3)ccc2o1 [Example 63, N-allyl-N-(2-{5-[5-(4-morpholinylcarbonyl)-2-pyridinyl]-1-benzofuran-2-yl}ethyl)amine]
- Ki [1]: 1 µM

Molecule: O=C(c1ccc(-c2ccc3oc(CCN4CCCCC4)cc3c2)nc1)N1CCOCC1 [Example 46, 4-[(6-{2-[2-(1-piperidinyl)ethyl]-1-benzofuran-5-yl}-3-pyridinyl)carbonyl]morpholine]
- Ki [1]: 0.0185 µM

Molecule: CN(C)[C@H]1CCN(CCc2cc3cc(-c4ccc(C#N)cc4)ccc3o2)C1 [Example 9, 4-(2-{2-[(3S)-3-(dimethylamino)pyrrolidinyl]ethyl}-1-benzofuran-5-yl)benzonitrile]
- Ki: 0.136 µM

Molecule: O=C(c1ccc(-c2ccc3oc(CCN4CCCCC4)cc3c2)cc1)N1CCOCC1 [Example 24, 4-(4-{2-[2-(1-piperidinyl)ethyl]-1-benzofuran-5-yl}benzoyl)morpholine]
- Ki [1]: 0.0117 µM

Molecule: C[C@@H]1CCCN1CCc1cc2cc(C(=O)c3ccccc3)ccc2o1 [Example 84, (2-{2-[(2R)-2-methyl-1-pyrrolidinyl]ethyl}-1-benzofuran-5-yl)(phenyl)methanone]
- Ki [1]: 0.0028 µM

Molecule: Cc1cc(C(=O)c2ccc3oc(CCN4CCC[C@H]4C)cc3c2)ccc1Cl [Example 77, (4-chloro-3-methylphenyl)(2-{2-[(2R)-2-methyl-1-pyrrolidinyl]ethyl}-1-benzofuran-5-yl)methanone]
- Ki [1]: 0.006 µM

Molecule: O=C(c1ccc(-c2ccc3oc(CCN4CCCCCC4)cc3c2)nc1)N1CCOCC1 [Example 51, 4-{[6-(2-{2-[1-azepanyl]ethyl}-1-benzofuran-5-yl)-3-pyridinyl]carbonyl}morpholine]
- Ki [1]: 0.00307 µM

Molecule: CSc1ccc(C(=O)c2ccc3oc(CCN4CCC[C@H]4C)cc3c2)cc1 [Example 78, (2-{2-[(2R)-2-methyl-1-pyrrolidinyl]ethyl}-1-benzofuran-5-yl)[4-(methylthio)phenyl]methanone]
- Ki [1]: 0.0082 µM

Molecule: O=C(c1ccc(-c2ccc3oc(CCN4CC[C@@H](O)C4)cc3c2)cc1)N1CCOCC1 [Example 27, (3R)-1-(2-{5-[4-(4-morpholinylcarbonyl)phenyl]-1-benzofuran-2-yl}ethyl)-3-pyrrolidinol]
- Ki [1]: 0.0554 µM

Molecule: CCN(CC)CCc1cc2cc(-c3ccc(C(=O)N4CCOCC4)cn3)ccc2o1 [Example 47, 4-[(6-{2-[2-(N,N-diethyl)ethyl]-1-benzofuran-5-yl}-3-pyridinyl)carbonyl]morpholine]
- Ki [1]: 0.0598 µM

Molecule: C[C@@H]1CC[C@@H](C)N1CCc1cc2cc(-c3ccc(C(=O)N4CCOCC4)cn3)ccc2o1 [Example 49, 4-{[6-(2-{2-[(2R,5R)-2,5-dimethylpyrrolidinyl]ethyl}-1-benzofuran-5-yl)-3-pyridinyl]carbonyl}morpholine]
- Ki [1]: 0.0144 µM

Molecule: CCCN(CC)CCc1cc2cc(-c3ccc(C#N)cc3)ccc2o1 [Example 22, 4-(2-{2-[ethyl(propyl)amino]ethyl}-1-benzofuran-5-yl)benzonitrile]
- Ki [1]: 0.0692 µM

Molecule: CCCN(CC)CCc1cc2cc(-c3ccc(C(=O)N4CCOCC4)cn3)ccc2o1 [Example 59, N-ethyl-N-propyl-N-(2-{5-[5-(4-morpholinylcarbonyl)-2-pyridinyl]-1-benzofuran-2-yl}ethyl)amine]
- Ki [1]: 0.0791 µM

Molecule: COc1cccc(C(=O)c2ccc3oc(CCN4CCC[C@H]4C)cc3c2)c1 [Example 83, (3-methoxyphenyl)(2-{2-[(2R)-2-methyl-1-pyrrolidinyl]ethyl}-1-benzofuran-5-yl)methanone]
- Ki [1]: 0.0011 µM

Molecule: CCN(CCc1cc2cc(-c3ccc(C(=O)N4CCOCC4)cc3)ccc2o1)C(C)C [Example 38, N-ethyl-N-isopropyl-N-(2-{5-[4-(4-morpholinylcarbonyl)phenyl]-1-benzofuran-2-yl}ethyl)amine]
- Ki [1]: 0.026 µM

Molecule: CCC(CC)CC(=O)c1ccc2oc(CCN3CCC[C@H]3C)cc2c1 [Example 76, 3-ethyl-1-(2-{2-[(2R)-2-methyl-1-pyrrolidinyl]ethyl}-1-benzofuran-5-yl)-1-pentanone]
- Ki [1]: 0.004 µM

Molecule: O=C(c1ccc(-c2ccc3oc(CCN4CCOCC4)cc3c2)nc1)N1CCOCC1 [Example 53, 4-[(6-{2-[2-(4-morpholinyl)ethyl]-1-benzofuran-5-yl}-3-pyridinyl)carbonyl]morpholine]
- Ki [1]: 0.242 µM

Molecule: COC(=O)[C@@H]1CCCN1CCc1cc2cc(-c3ccc(C#N)cc3)ccc2o1 [Example 15, 4-(2-{2-[2-pyrrolidinemethyl carboxylate]ethyl}-1-benzofuran-5-yl)benzonitrile]
- Ki [1]: 1 µM

Molecule: CC1CCN(CCc2cc3cc(-c4ccc(C#N)cc4)ccc3o2)CC1 [Example 14, 4-{2-[2-(4-methyl-1-piperidinyl)ethyl]-1-benzofuran-5-yl}benzonitrile]
- Ki [1]: 0.0251 µM

Reference: patent US20020183309A1, “Novel amines as histamine-3 receptor ligands and their therapeutic applications” (priority 2001, published 2002)
